The values below come from article PMC11273431, “Isolation, Characterization, and Functional Properties of Antioxidant Peptides from Mulberry Leaf Enzymatic Hydrolysates” (Antioxidants, 2024).

Assay type in all cases: cell-based
Series [1] concerns HepG2 cells. Description: Cell viability, CCK-8. Conditions: 160 μM H2O2, 24 h. The protocol:
HepG2 cells were cultured in a complete medium (90% DMEM + 10% FBS + 100 units/mL penicillin and 100 μg/mL streptomycin) at 37 °C, 5% CO2, and 90% relative humidity. The Cell Counting Kit-8 (CCK-8) Assay Kit was used to detect the effect of H2O2 and peptides on cell viability. HepG2 cells (1 × 10^5 cells/mL) were pre-seeded in a 96-well culture plate overnight and then treated with H2O2 and peptides at 37 °C for 24 h. Cell viability was assessed with the CCK-8 kit (Item No. BS350C) according to the protocol supplied by the manufacturer.

Series [2] has as its system CAT. The experiment in a line: CAT activity in HepG2 cells. The following applies: 5–10 μg/mL pretreatment 6 h, then H2O2 160 μM 24 h; p < 0.01. The protocol:
(§1) First, HepG2 cells (1 × 10^5 cells/mL) in a volume of 2 mL were seeded in a 6-well culture plate and incubated at 37 °C for 24 h. Experimental grouping and treatments were the same as in Section 2.9. Next, cells were collected, and cell lysis was performed using RIPA cell lysis solution. The protein concentration in cell lysates was determined by the BCA protein assay kit. SOD (Item No. A001-3-2) and CAT (Item No. A007-1-1) activity assays were carried out according to the instructions provided with the corresponding assay kits.

Series [3] relates to ROS in HepG2 cells. Description: ROS levels, DCFH-DA fluorescence. The following applies: 5–10 μg/mL pretreatment 6 h, then H2O2 160 μM 24 h; p < 0.01. The protocol: HepG2 cells were treated as in Section 2.10. After that, the supernatant was discarded, and cells were gently washed twice with PBS. Subsequently, the cells were incubated with DMEM containing 10 μM DCFH2-DA at 37 °C for 20 min. After the incubation, the cells were carefully washed twice with PBS, and then 1 mL of DMEM was added, after which the cells were observed under a fluorescence microscope.
The contents of ROS were indicated by DCF fluorescence and quantified using excitation and emission filters of 488 and 525 nm, respectively. The ROS levels were expressed as a percentage of the blank control values.

The test system of series [4] is HepG2 cells. Description: JC-1 staining, mitochondrial membrane potential. The following applies: 5–10 μg/mL pretreatment 6 h, then H2O2 160 μM 24 h; for JC-1 green fluorescence: fluorescence microscopy; for JC-1 red/green fluorescence ratio: microplate reader, versus H2O2 damage group. On the procedure: (§2) HepG2 cells were treated as in Section 2.10. Hoechst 33258 (Item No. C0021) and JC-1 (Item No. M8650) staining was performed according to the instructions provided in the staining kit.
After JC-1 staining, the samples were examined under a fluorescence microscope. […] The red/green fluorescence ratio can be considered a direct indicator of the state of mitochondrial polarization.

For series [5], the system named is HepG2 cells. The experiment in a line: Hoechst 33258 staining, chromatin damage. Conditions: 5–10 μg/mL pretreatment 6 h, then H2O2 160 μM 24 h; fluorescence microscopy. The protocol: as §2
Hoechst 33258 staining was directly observed using a fluorescence microscope.

The subject of series [6] is SOD. Description: SOD activity in HepG2 cells. The following applies: 5–10 μg/mL pretreatment 6 h, then H2O2 160 μM 24 h; p < 0.01. On the procedure: as §1
Series [7] deals with HepG2 cells. Description: Apoptosis, Annexin V-FITC/PI flow cytometry. The following applies: 5–10 μg/mL pretreatment 6 h, then H2O2 160 μM 24 h. On the procedure:
HepG2 cells were treated as in Section 2.10. After that, cells were collected, rinsed twice with PBS, and then resuspended in Apoptosis Detection Staining solution (containing 2 μL of Annexin V-FITC dye, 5 μL of PI dye, and 100 μL of Binding buffer).
After 15 min of dark incubation at room temperature, cells were analyzed for their apoptotic status (Ex = 488 nm, FL1 EM = 515 nm, FL2 EM = 560 nm) using the BD Fortessa flow cytometer (Becton Dickinson, Franklin Lakes, NJ, USA), and the data were analyzed with Flowjo software 10.0.
A general note: A flow cytometer gives signals particle by particle.

For series [8], the system named is HepG2 cells. Description: Protective effect against H2O2-induced oxidative damage, CCK-8. The following applies: peptide 100 μg/mL pretreatment 6 h, then H2O2 160 μM 24 h. On the procedure: We first established a H2O2-induced oxidative damage model in HepG2 cells. HepG2 cells (1 × 10^5 cells/mL) in a volume of 100 μL were seeded in a 96-well culture plate and incubated at 37 °C for 24 h. The control group and damage group received 100 μL of DMEM, the positive control group received 100 μL of 100 μg/mL Trolox, and the experimental group received 100 μL of DMEM containing different concentrations of peptides.
After culturing for another 6 h, the experimental and damage groups were exposed to H2O2 (160 μM) for 24 h, while the control group received an equal volume of DMEM. Finally, cell viability was measured following the procedures in Section 2.8.

`OO` [Peptide H2O2, hydrogen peroxide] returned a Cell survival rate in series [1] of approximately 50%.

With EGDAGAQGPPGPAGPAGER [Peptide P6], the CAT activity result in series [2] is reported as “significant increase”. Besides, in series [3], the “Cellular DCF fluorescence intensity (ROS)” value was “significantly reduced”. Moreover, in series [4], the JC-1 green fluorescence result is “reduced green fluorescence” and the “JC-1 red/green fluorescence ratio” value is “effectively alleviated”. Moreover, in series [5], the “Hoechst 33258 nuclear fluorescence (chromatin damage)” value is “reduced blue fluorescence and fewer bright spots”. For the same compound, in series [6], the SOD activity result is given as “significant increase”. Also, the Apoptosis rate result in series [7] is reported as “significantly reduced the apoptosis rate”. In series [8], the “Mitigating effect on H2O2-induced oxidative damage (cell survival rate)” value is “significantly better than those of the other peptides”.

As to RPGPSPGVGAPGK [Peptide P7], in series [2], the CAT activity result is recorded as “significant increase”. Moreover, in series [3], the “Cellular DCF fluorescence intensity (ROS)” value was “significantly reduced”. Further, in series [4], the JC-1 green fluorescence result was “reduced green fluorescence” and the “JC-1 red/green fluorescence ratio” value was “effectively alleviated”. Further, the “Hoechst 33258 nuclear fluorescence (chromatin damage)” value in series [5] was “reduced blue fluorescence and fewer bright spots”. The SOD activity entry in series [6] was “significant increase”. Moreover, the Apoptosis rate entry in series [7] is recorded as “significantly reduced the apoptosis rate”. The “Mitigating effect on H2O2-induced oxidative damage (cell survival rate)” value in series [8] is on record as “significantly better than those of the other peptides”.
